Measured values from US5204361A, “Method for treating laminitis in equine livestock” (priority 1988, dated 1993).

What was measured:
[1] = tested on: mixed caecal/large colon digesta; assay: Experiment 2 Part 1: in vitro fermentation of digesta with cornstarch, avoparcin, virginiamycin, flavomycin 2-32 ug/ml; format: cell-based, horse; set-up: Lactate / Total VFA: unit not given here; conditions: for pH / Acet:Prop / Lactate / Total VFA: mean
Procedure: Digesta was taken from the caecum and large colon from recently slaughtered animals and was filtered through nylon gauze (approximately 60 micron apertures). The fluid was diluted 1:1 with a buffer solution described by Bales et al. (1976) and incubated with wheat "corn starch" (with or without antibiotics) at 37° for 16 to 20 hours. Aliquots of digesta diluted with buffer (50 ml) were added to 100 ml conical flasks. The flasks were flushed with carbon dioxide before being sealed with a tightly fitting rubber cap. A 21 gauge needle was inserted through the rubber seal in order to allow gas to escape during the fermentation. On removal from the incubator sub-samples were immediately taken to measure L-lactic acid concentration and pH. For each treatment or level of antibiotic three replicate incubation flasks were used.
A range of concentrations of cornstarch providing: 0, 5, 10, 15 and 20 mg/ml diluted digesta (i.e. from 0 to 1 g cornstarch/conical flask) were tested to determine the amount required to produce a pattern of fermentation with high levels of lactic acid. Flasks were also prepared with cornstarch mixed with antibiotic premixes to provide 15 mg cornstarch/ml incubation mixture and 0, 2, 4, 8, 16 and 32 ug of avoparcin, virginiamycin or flavomycin per ml incubation mixture. After approximately 16 hour incubation at 37° samples were taken to measure lactic acid, VFA and pH.

[2] = tested on: caecal/large colon digesta; assay: Experiment 2 Part 6: therapeutic use, virginiamycin added after the start of fermentation; format: cell-based, horse; conditions: virginiamycin 10 ug/ml added at 4, 8 or 12 h; total 24 h; FIG. 6
Procedure: An in vitro experiment was conducted to determine whether by adding the virginiamycin after the start of fermentation of caecal digesta and glucose subsequent lactic acid production could still be prevented.
Samples of caecal/large colon digesta were prepared as described above (Part 5) but with the following treatments (3 replicates/treatment):
(a) Control--incubated for 24 h;
(b) Sampled after 4 h and virginiamycin added before incubating for a total of 24 h;
(c) As for (b) but with sampling etc at 8 h; and
(d) As for (b) but sampling etc after 12 h. Virginiamycin was added to provide 10 ug/ml.

[3] = tested on: caecal and large colon digesta of horses; assay: Experiment 2 Part 4: fresh digesta of horses fed pelleted diet with virginiamycin; format: in vivo, horse; conditions: for pH, fresh digesta / L-lactate, fresh digesta / Total VFA, fresh digesta / % Acetate, fresh digesta / % Butyrate, fresh digesta / % Iso-valerate, fresh digesta / % Propionate, fresh digesta / % Valerate, fresh digesta: n = 5, mean; for % Acetate, fresh digesta / % Butyrate, fresh digesta / % Iso-valerate, fresh digesta / % Propionate, fresh digesta / % Valerate, fresh digesta: molar percentage, feed with virginiamycin
Procedure: A total of ten horses were used for this experiment. Five horses were offered 5 kg of a pelleted mixture (ground wheat 92.5%, ground lucerne chaff 5% and `Stafac 20` 2.5% to supply approximately 2.5 g virginiamycin. A further 5 horses were offered the same feed but without virginiamycin. Samples of caecal and large colon digesta were taken for analysis of pH, VFA, virginiamycin and L-lactate. Samples were also prepared as described above with buffer solution and incubated (1 flask/sample) with cornstarch (15 mg/ml diluted digesta). Following 20 hours incubation samples were taken for analysis of L-lactate and pH.

[4] = antibiotic 2 μg/ml, cornstarch 15 mg/ml, approx 16 hour incubation
[5] = antibiotic 4 μg/ml, cornstarch 15 mg/ml, approx 16 hour incubation
[6] = antibiotic 8 μg/ml, cornstarch 15 mg/ml, approx 16 hour incubation
[7] = antibiotic 16 μg/ml, cornstarch 15 mg/ml, approx 16 hour incubation
[8] = antibiotic 32 μg/ml, cornstarch 15 mg/ml, approx 16 hour incubation
[9] = Caecum, feed with virginiamycin approx 14 hours before slaughter
[10] = Colon, feed with virginiamycin approx 14 hours before slaughter

virginiamycin
control of lactic acid build up ([1]; Experiment 2 screening programme as a whole): consistent and effective control
pH ([1]; antibiotic 2 μg/ml, cornstarch 15 mg/ml, approx 16 hour incubation at 37°): 6.57
Acet:Prop [1, 4]: 2.9
Lactate [1, 4]: 0.2
Total VFA [1, 4]: 93.2
Acet:Prop [1, 5]: 3.1
Lactate [1, 5]: 0.2
Total VFA [1, 5]: 80.8
pH [1, 5]: 6.63
Acet:Prop [1, 6]: 3.2
Lactate [1, 6]: 0.2
Total VFA [1, 6]: 79.7
pH [1, 6]: 6.66
Acet:Prop [1, 7]: 3.8
Lactate [1, 7]: 0.0
Total VFA [1, 7]: 71.3
pH [1, 7]: 6.64
Acet:Prop [1, 8]: 3.7
Lactate [1, 8]: 0.1
Total VFA [1, 8]: 87.1
pH [1, 8]: 6.66
control of lactic acid build-up ([1]; at concentrations as low as 2 g/ml, cornstarch 15 mg/ml): total control
time after the start of glucose fermentation at which addition of virginiamycin still prevents the build up of lactic acid [2]: up to 8 h
pH, fresh digesta ([3]; Caecum, feed with approx 2.5 g virginiamycin approx 14 hours before slaughter): 6.2
L-lactate, fresh digesta [3, 9]: 10.3 mmol/L
Total VFA, fresh digesta [3, 9]: 76.1 mmol/L
% Acetate, fresh digesta ([3]; Caecum): 50.3%
% Butyrate, fresh digesta ([3]; Caecum): 3.2%
% Iso-valerate, fresh digesta ([3]; Caecum): 0.0%
% Propionate, fresh digesta ([3]; Caecum): 46.5%
% Valerate, fresh digesta ([3]; Caecum): 0.5%
L-lactate, fresh digesta [3, 10]: 10.2 mmol/L
Total VFA, fresh digesta [3, 10]: 118.7 mmol/L
pH, fresh digesta [3, 10]: 6.0
% Acetate, fresh digesta ([3]; Colon): 52.1%
% Butyrate, fresh digesta ([3]; Colon): 3.6%
% Iso-valerate, fresh digesta ([3]; Colon): 1.5%
% Propionate, fresh digesta ([3]; Colon): 44.3%
% Valerate, fresh digesta ([3]; Colon): 0.2%
molar percentage of propionate versus control animals ([3]; fresh digesta): more than twice
molar percentages of acetate, butyrate, isovalerate and valerate versus control animals ([3]; fresh digesta): reduced
pH of the digesta in the caecum or large colon versus control animals ([3]; fresh digesta): no significant effect
total concentration of VFA versus control animals ([3]; fresh digesta, p<0.001): lower total concentration of VFA
concentration of L-lactate in the caecal and large colon digesta versus control animals ([3]; fresh digesta, p<0.05): higher
